Values after ≈ are worked out from the molar mass of the structure shown.
Key:
[1] = system: Acinetobacter baumannii ATCC19606; experiment: MIC, broth microdilution; assay type: cell-based; conditions: Acinetobacter baumannii ATCC19606; for MIC: read-out: MIC A. b. 19606
Protocol: (§1) All target derivatives were assessed for their in vitro antibacterial activities using a broth microdilution assay to test their minimum inhibitory concentrations (MICs) against six Gram-positive strains (S. aureus ATCC31007, S. aureus ATCC25923, S. aureus ATCC43300, E. faecalis ATCC29212, B. subtilis ATCC9372, and S. epidermidis ATCC12228) and four Gram-negative strains (A. baumannii ATCC19606, K. pneumonia ATCC10031, E. coli ATCC25922, and P. aeruginosa ATCC27853). These compounds were also evaluated for their hemolytic activities and membrane selectivity by determining their HC50 (the concentration required to lyse 50% of red blood cells) and SI (HC50/MICs) values, respectively, and vancomycin was used as the positive drug.
(§2) MICs of the derivatives were determined by the micro broth dilution method according to the American Clinical and Laboratory Standards Institute (CLSI) standards. Briefly, 2-fold serial dilutions of target compounds were prepared in 96-well plates containing TSB broth. An equal volume of bacterial suspension (10^6 CFU/mL) was then pipetted into each well, and the mixture was incubated at 37 °C for 24 h. […] All biological experiments were repeated three times.

[2] = system: Bacillus subtilis ATCC9372, penicillin-susceptible strain; experiment: MIC, broth microdilution; assay type: cell-based; conditions: Bacillus subtilis ATCC9372; for MIC: read-out: MIC B. s. 9372
Protocol: as §1, §2

[3] = system: Enterococcus faecalis ATCC29212, vancomycin-susceptible strain; experiment: MIC, broth microdilution; assay type: cell-based; conditions: Enterococcus faecalis ATCC29212; for MIC: read-out: MIC E. f. 29212
Protocol: as §1, §2

[4] = system: Escherichia coli ATCC25922, penicillin-susceptible strain; experiment: MIC, broth microdilution; assay type: cell-based; conditions: Escherichia coli ATCC25922; for MIC: read-out: MIC E. c. 25922
Protocol: as §1, §2

[5] = system: Klebsiella pneumonia ATCC10031; experiment: MIC, broth microdilution; assay type: cell-based; conditions: Klebsiella pneumonia ATCC10031; for MIC: Klebsiella pneumoniae, read-out: MIC K. p. 10031
Protocol: as §1, §2

[6] = system: Pseudomonas aeruginosa ATCC27853, penicillin-susceptible strain; experiment: MIC, broth microdilution; assay type: cell-based; conditions: Pseudomonas aeruginosa ATCC27853; for MIC: read-out: MIC P. a. 27853
Protocol: as §1, §2

[7] = system: Staphylococcus aureus ATCC25923, erythromycin-susceptible strain; experiment: MIC, broth microdilution; assay type: cell-based; conditions: Staphylococcus aureus ATCC25923; for MIC: read-out: MIC S. a. 25923
Protocol: as §1, §2

[8] = system: Staphylococcus aureus ATCC31007, penicillin-resistant strain; experiment: MIC, broth microdilution; assay type: cell-based; conditions: Staphylococcus aureus ATCC31007; for MIC: read-out: MIC S. a. 31007
Protocol: as §1, §2

[9] = system: Staphylococcus epidermidis ATCC12228, erythromycin-susceptible strain; experiment: MIC, broth microdilution; assay type: cell-based; conditions: Staphylococcus epidermidis ATCC12228; for MIC: read-out: MIC S. e. 12228
Protocol: as §1, §2

[10] = system: Staphylococcus aureus ATCC43300, methicillin-resistant strain; experiment: microbe, parasite or virus in culture; assay type: cell-based; conditions: Staphylococcus aureus ATCC43300 (MRSA); for MIC: ATCC 43300 / MRSA, read-out: MIC S. a 43300
Protocol: as §1, §2

[11] = system: Enterococcus faecalis ATCC51299, vancomycin-resistant strain; experiment: MIC, broth microdilution; assay type: cell-based; conditions: Enterococcus faecalis ATCC51299, vancomycin-resistant; for MIC: read-out: MIC E. f. 51299
Protocol: as §2

[12] = system: Enterococcus faecium ATCC51559, vancomycin-resistant strain; experiment: MIC, broth microdilution; assay type: cell-based; conditions: Enterococcus faecium ATCC51559, vancomycin-resistant; for MIC: read-out: MIC E. f. 51559
Protocol: as §2

red blood cells = experiment: Hemolysis assay; assay type: cell-based, Sheep; conditions: concentration required to lyse 50% of red blood cells; 37 °C, 1 h
Protocol: as §1
To further detect the hemolytic toxicity and therapeutic potential of these derivatives, we proceeded to examine the hemolytic activities and membrane selectivity of these derivatives. The HC50 value was defined as the concentration needed for a compound to lyse 50% of red blood cells, and it is often used to evaluate the hemolytic toxicity to eukaryotic cells. […] The selectivity index (SI) was calculated by HC50/MICs of S. aureus ATCC43300 and was used to assess the potency and safety of the compounds. […] Thus, compound 9h was selected as a representative molecule for the in-depth in vitro and in vivo studies.
Sheep blood was used to isolate red blood cells (RBCs), which were then resuspended in 1× PBS (5%). The compounds were dissolved in PBS to give an initial concentration of 5.12 mg/mL, compound solution (100 μL) was added to the first well of a 96-well plate, two-fold serial dilutions of compounds were prepared in 96-well plates, and then 150 μL of 5% RBC suspension was added to each well. This was followed by incubation at 37 °C for 1 h. After incubation, the plate was centrifuged (3500 rpm, 5 min), and 100 μL of supernatant solution from each well was carefully pipetted into a new plate. The absorbance values were measured at 540 nm. Erythrocyte hemolysis rate = (Absorbancecompound – Absorbance negative control)/(Absorbance1% Triton X-100 − Absorbance negative control) × 100%. All biological experiments were repeated three times.

Compound	MIC [1] [µg/mL]	MIC [2] [µg/mL]	MIC [3] [µg/mL]	MIC [4] [µg/mL]	MIC [5] [µg/mL]	MIC [6] [µg/mL]	MIC [7] [µg/mL]	MIC [8] [µg/mL]	MIC [9] [µg/mL]	MIC [10] [µg/mL]	MIC [11] [µg/mL]	MIC [12] [µg/mL]	HC50 (red blood cells) [µg/mL]	further results
CCNCCCOc1c(C(C)=O)ccc2c1C=CC(C)(CCC=C(C)C)O2 (centres unmarked) [Compound 5b, 1-(5-(3-(Ethylamino)propoxy)-2-methyl-2-(4-methylpent-3-en-1-yl)-2H-chromen-6-yl)ethan-1-one]	16 (≈ 43.1 µM)	8 (≈ 21.5 µM)	8 (≈ 21.5 µM)	32 (≈ 86.1 µM)	16 (≈ 43.1 µM)	> 128	16 (≈ 43.1 µM)	16 (≈ 43.1 µM)	8 (≈ 21.5 µM)	16 (≈ 43.1 µM)	32 (≈ 86.1 µM)	32 (≈ 86.1 µM)	118.4	–
colistin [Cos, reference compound]	–	–	–	–	–	–	–	–	–	–	–	–	–	MIC A. b. 19606 [1]: 1 µg/mL; MIC B. s. 9372 [2]: 16 µg/mL; MIC E. f. 29212 [3]: 128 µg/mL; MIC E. c. 25922 [4]: 0.5 µg/mL; MIC K. p. 10031 [5]: 1 µg/mL; MIC P. a. 27853 [6]: 0.5 µg/mL; MIC S. a. 25923 [7]: 128 µg/mL; MIC S. a. 31007 [8]: 128 µg/mL; MIC S. e. 12228 [9]: 64 µg/mL; MIC S. a 43300 [10]: 128 µg/mL; MIC E. f. 51299 [11]: >128 µg/mL; MIC E. f. 51559 [12]: >128 µg/mL
CNCCN(C)CCCOc1c2c(c3c(c1C(C)=O)OC(C)(CCC=C(C)C)C=C3)OC(C)(CCC=C(C)C)C=C2 (centres unmarked) [Compound 9f, 1-(2,8-Dimethyl-5-(3-(methyl(2-(methylamino)ethyl)amino)propoxy)-2,8-bis(4-methylpent-3-en-1-yl)-2H,8H-pyrano[2,3-f]chromen-6-yl)ethan-1-one]	64 (≈ 113 µM)	8 (≈ 14.2 µM)	8 (≈ 14.2 µM)	128 (≈ 227 µM)	16 (≈ 28.3 µM)	> 128	4 (≈ 7.08 µM)	4 (≈ 7.08 µM)	8 (≈ 14.2 µM)	4 (≈ 7.08 µM)	4 (≈ 7.08 µM)	8 (≈ 14.2 µM)	40.3	–
CCN(CC)CCCNCCCOc1c2c(c3c(c1C(C)=O)OC(C)(CCC=C(C)C)C=C3)OC(C)(CCC=C(C)C)C=C2 (centres unmarked) [Compound 9g, 1-(5-(3-((3-(Diethylamino)propyl)amino)propoxy)-2,8-dimethyl-2,8-bis(4-methylpent-3-en-1-yl)-2H,8H-pyrano[2,3-f]chromen-6-yl)ethan-1-one]	4 (≈ 6.59 µM)	2 (≈ 3.3 µM)	1 (≈ 1.65 µM)	4 (≈ 6.59 µM)	8 (≈ 13.2 µM)	32 (≈ 52.7 µM)	2 (≈ 3.3 µM)	4 (≈ 6.59 µM)	1 (≈ 1.65 µM)	4 (≈ 6.59 µM)	32 (≈ 52.7 µM)	32 (≈ 52.7 µM)	34.9	–
CC(=O)c1ccc2c(c1OCCCNCCN(C)C)C=CC(C)(CCC=C(C)C)O2 (centres unmarked) [Compound 5f, 1-(5-(3-((2-(Dimethylamino)ethyl)amino)propoxy)-2-methyl-2-(4-methylpent-3-en-1-yl)-2H-chromen-6-yl)ethan-1-one]	8 (≈ 19.3 µM)	8 (≈ 19.3 µM)	8 (≈ 19.3 µM)	8 (≈ 19.3 µM)	8 (≈ 19.3 µM)	32 (≈ 77.2 µM)	16 (≈ 38.6 µM)	16 (≈ 38.6 µM)	8 (≈ 19.3 µM)	8 (≈ 19.3 µM)	32 (≈ 77.2 µM)	32 (≈ 77.2 µM)	127.7	–
CC(=O)c1ccc2c(c1OCCCN1CCN(C(C)=O)CC1)C=CC(C)(CCC=C(C)C)O2 (centres unmarked) [Compound 5e, 1-(4-(3-((6-Acetyl-2-methyl-2-(4-methylpent-3-en-1-yl)-2H-chromen-5-yl)oxy)propyl)piperazin-1-yl)ethan-1-one]	128 (≈ 282 µM)	64 (≈ 141 µM)	32 (≈ 70.4 µM)	> 128	> 128	> 128	128 (≈ 282 µM)	128 (≈ 282 µM)	64 (≈ 141 µM)	128 (≈ 282 µM)	128 (≈ 282 µM)	128 (≈ 282 µM)	62.3	–

Source: article PMC11350758, “Development of Xanthoangelol-Derived Compounds with Membrane-Disrupting Effects against Gram-Positive Bacteria” (Antibiotics, 2024)
